What all share (type): in vivo
The subject of one test is restenosis. Briefly: Patients with coronary stenosis treated to prevent restenosis. As to conditions: BSO 4 mmol/kg four times a day intracoronary for one week, 32P-implanted Palmaz-Schatz stent.
For test [1], the system named is benign prostatic hypertrophy. Briefly: Patients with benign prostatic hypertrophy. The source says: A person presents with a history of urinary hesitancy and multiple awakenings during the night. They are given a diagnosis of benign prostatic hypertrophy. Under stereotactic guidance, the patient's enlarged prostate gland is implanted with several porus polymer pellets designed to slowly release L-buthionine-S-sulfoximine (1 μmol/hr) and S-nitrosocysteine (1 μmol/hr). […] They then have nearly normal urine flow and usually wakes no more than once per night.
A similar patient with benign prostatic hypertrophy and very marked enlargement of their prostate is treated with NO-substituted finasteride (NO-substituted Proscar; 5 mg/day). NO-substitution is accomplished by replacement of the tert-butyl amine moiety of finasteride with S-nitroso-β-thio-tert-butyl amine.
A person with benign prostatic hypertrophy is treated with Finisteride (Proscar: 5 mg/day) and oral buthionine-S-sulfoximine at a dose of 10 mmol/kg four time/day.

Another test has as its system trypanosomes. Briefly: Patient with trypanosome infection. Conditions: L-buthionine-S-sulfoximine 3 mmol/kg p.o. every 4 hours and S-nitrosoglutathione iv 10 mg/kg every 8 hours, one week. The procedure: A person presents with high fever, moderate lymphadenopathy and reports that they have lost 40 pounds in the last month, two months after returning from a safari in sub-Saharan Africa. On questioning, the patient reports having developed during the safari an ulcer on their forearm two days following a bite by a fly. […] The patient is hospitalized and given L-buthionine-S-sulfoximine at a dose of 3 mmol/kg p.o. every 4 hours for one week. In addition, the patient receives S-nitrosoglutathione iv at a dose of 10 mg/kg every 8 hours for one week.

The next test concerns small cell lung cancer. Briefly: Patients with small cell lung cancer. As to conditions: cyclophosphamide, NO-substituted doxirubicin IV and BSO 4 mmol/kg IV four times/day; chest X-ray in two months. As to the method: A person with a 80 pack-year history of smoking presents with hemoptosis and weight loss. […] The patient is given a combination therapy of cyclophosphamide (750 mg/m^2) plus NO-substituted doxirubicin (40 mg/m^2) and vincristine (2 mg) (all administered i.v.). The therapeutic regimen is repeated once at three weeks.
A person with a 20 pack/year history of smoking presents with cough. […] The patient receives cyclophosphamide (750 mg/m^2 and NO-substituted doxirubicin (administered IV)). The patient also receives L-buthionine-S-sulfoximine, i.e., BSO (4 mmol/kg IV four times/day).

Another test concerns Giardia lamblia. Briefly: Patient with Giardia lamblia infection. As to conditions: 4 mmol/kg four times a day p.o. with metronidazole 500 mg twice a day p.o. for five days.

As for `CCCCS(=N)(=O)CC[C@H](N)C(=O)O` (stereo partly drawn) [L-buthionine-S-sulfoximine], the clinical outcome in the test on restenosis is recorded as “repeat of their angiogram shows no restenosis”; in test [1] (Finisteride 5 mg/day and oral buthionine-S-sulfoximine 10 mmol/kg four time/day), “symptoms of hesitancy improve significantly over two months”; in test [1] (prostate-implanted polymer pellets releasing each agent at 1 μmol/hr), “symptoms improve over a period of three weeks”; with trypanosomes, “blood smear is free of trypanosomes”; in the test on small cell lung cancer, “decrease in size of the mass”; with Giardia lamblia, “stool culture becomes negative for Giardia after five days”.

The record behind these values is patent US7022737B2, “Manipulating nitrosative stress to kill pathologic microbes, pathologic helminths and pathologically proliferating cells or to upregulate nitrosative stress defenses” (Duke University, priority 1996, dated 2006).
